According to patent publication US4419123A, “Herbicidal 4-trifluoromethyl-3'-carbon-substituted-4'-substituted diphenyl ethers” (Rohm and Haas Company, priority 1981, dated 1983):

How the values were obtained:
[1] = Postemergence herbicidal activity (% control) against dicot weeds; settings: post-emergence, 336 h
peanuts = assay: Crop tolerance (selective herbicidal activity), peanuts; type: in vivo
Description: (§1) The following test procedure is employed.
(§2) Following the general test procedure of Example 37, diphenyl ethers are evaluated for significant tolerance (as shown by 50% or less kill of the test crop at levels of application which give more than 50% kill of many or all of the weeds of Example 73) towards some or all of the following common agronomic crops (not all compounds tested against all crops): alfalfa, snapbeans, corn, cotton, cucumbers, peanuts, rape, rice, safflower, soybeans, tomatoes, and wheat.

[2] = Preemergence herbicidal activity (% control) against monocot weeds; type: in vivo; settings: pre-emergence, 336 h, average, about two weeks after application, read-out: Herbicidal activity (% control), preemergence, monocots; for activity at 2241.7 g/ha: 2 lb./A.; for activity at 4483.4 g/ha: 4 lb./A.; for activity at 11208.5 g/ha: 10 lb./A.
Excerpt: (§3) barnyardgrass (Echinochloa crusgalli) crabgrass (Digitaria spp.) nutsedge (Cyperus esculentus)
(§4) At 2 and 4 pounds per acre:
(§5) **Bermudagrass (Cynodon dactylon)
(§6) *downy brome (Bromus tectorum) foxtail (Setaria faberii)
(§7) Johnsongrass (Sorghum halepense) […]
(§8) quackgrass (Agropyron repens)
(§9) *ryegrass (Lolium perenne)
(§10) *wild oats (Avena factua)
(§11) *yellow millet (Panicum miliaceum)
as §1

[3] = Postemergence herbicidal activity (% control) against monocot weeds; type: in vivo; settings: post-emergence, 336 h, average, about two weeks after application, read-out: Herbicidal activity (% control), postemergence, monocots; for activity at 2241.7 g/ha: 2 lb./A.; for activity at 4483.4 g/ha: 4 lb./A.; for activity at 11208.5 g/ha: 10 lb./A.
Excerpt: as §3, §4, §5, §6, §7, §8, §9, §10, §11, §1

[4] = Preemergence herbicidal activity (% control) against dicot weeds; settings: pre-emergence, 336 h; for activity at 11208.5 g/ha: read-out: Herbicidal activity (% control), preemergence, dicots, 10 lb./A., average, about two weeks after application
rice = assay: Crop tolerance (selective herbicidal activity), rice; type: in vivo; settings: postemergence applications or applications on transplanted rice
Description: as §1, §2

corn = assay: Crop tolerance (selective herbicidal activity), corn; type: in vivo; settings: postemergence applications
Description: as §1, §2

soybeans = assay: Crop tolerance (selective herbicidal activity), soybeans; type: in vivo; settings: preemergence applications
Description: as §1, §2

[5] = read-out: Herbicidal activity (% control), postemergence, dicots, 4 lb./A., average, about two weeks after application
[6] = read-out: Herbicidal activity (% control), preemergence, dicots, 4 lb./A., average, about two weeks after application
[7] = read-out: Herbicidal activity (% control), postemergence, dicots, 2 lb./A., average, about two weeks after application
[8] = read-out: Herbicidal activity (% control), preemergence, dicots, 2 lb./A., average, about two weeks after application
[9] = read-out: Herbicidal activity (% control), postemergence, dicots
[10] = read-out: Herbicidal activity (% control), preemergence, dicots

Compound | activity at 4483.4 g/ha [1, 5] | activity at 2241.7 g/ha [2] | activity at 4483.4 g/ha [2] | activity at 2241.7 g/ha [3] | activity at 4483.4 g/ha [3] | activity at 4483.4 g/ha [4, 6] | activity at 2241.7 g/ha [1, 7] | activity at 2241.7 g/ha [4, 8] | other results
O=[N+]([O-])c1ccc(Oc2ccc(C(F)(F)F)cc2Cl)cc1Cl [Example 37, 2-chloro-α,α,α-trifluoro-p-tolyl-3-chloro-4-nitrophenyl ether] | 100% | 100% | 99% | 100% | 92% | 100% | – | – | Tolerance to peanuts (peanuts; postemergence applications): Tolerance (significant tolerance (as shown by 50% or less kill of the test crop at levels of application which give more than 50% kill of many or all of the weeds of Example 73))
CN(C)c1cc(Oc2ccc(C(F)(F)F)cc2Cl)ccc1[N+](=O)[O-] [Example 20, 2-chloro-α,α,α-trifluoro-p-tolyl-3-dimethylamino-4-nitrophenyl ether] | 88% | 80% | 88% | 80% | 78% | 99% | 97% | 93% | Tolerance to rice (rice): Tolerance (significant tolerance (as shown by 50% or less kill of the test crop at levels of application which give more than 50% kill of many or all of the weeds of Example 73))
COC(=O)c1cc(Oc2ccc(C(F)(F)F)cc2Cl)ccc1[N+](=O)[O-] [Example 49, 2-chloro-α,α,α-trifluoro-p-tolyl-3-carbomethoxy-4-nitrophenyl ether] | 100% | 100% | 92% | 77% | 86% | 95% | 100% | 100% | Tolerance to corn (corn): Tolerance (significant tolerance (as shown by 50% or less kill of the test crop at levels of application which give more than 50% kill of many or all of the weeds of Example 73)); Tolerance to peanuts (peanuts; preemergence applications): Tolerance (significant tolerance (as shown by 50% or less kill of the test crop at levels of application which give more than 50% kill of many or all of the weeds of Example 73)); Tolerance to soybeans (soybeans): Tolerance (significant tolerance (as shown by 50% or less kill of the test crop at levels of application which give more than 50% kill of many or all of the weeds of Example 73))
COc1cc(Oc2ccc(C(F)(F)F)cc2Cl)ccc1[N+](=O)[O-] [Example 2] | 100% | – | 97% | – | 99% | 80% | – | – | activity at 11208.5 g/ha [2]: 97%; activity at 11208.5 g/ha [3]: 100%; activity at 11208.5 g/ha [4]: 100%
CCCOc1cc(Oc2ccc(C(F)(F)F)cc2Cl)ccc1[N+](=O)[O-] [Example 5] | 100% | – | 84% | – | 99% | 78% | – | – | activity at 11208.5 g/ha [2]: 97%; activity at 11208.5 g/ha [3]: 100%; activity at 11208.5 g/ha [4]: 100%
O=[N+]([O-])c1ccc(Oc2ccc(C(F)(F)F)cc2Cl)cc1OCC1CO1 (stereo not drawn) [Example 38] | 98% | 62% | 47% | 51% | 43% | 86% | 58% | 68% | –
O=C(CCl)Nc1cc(Oc2ccc(C(F)(F)F)cc2Cl)ccc1[N+](=O)[O-] [Example 35, 2-chloro-α,α,α-trifluoro-p-tolyl-3-chloroacetamido-4-nitrophenyl ether] | 98% | 60% | 40% | 63% | 45% | – | 80% | 72% | –
CCCCOc1cc(Oc2ccc(C(F)(F)F)cc2Cl)ccc1[N+](=O)[O-] [Example 6] | 94% | – | 77% | – | 91% | 55% | – | – | activity at 11208.5 g/ha ([1]; read-out: Herbicidal activity (% control), postemergence, dicots, 10 lb./A., average, about two weeks after application): 100%; activity at 11208.5 g/ha [2]: 65%; activity at 11208.5 g/ha [3]: 97%; activity at 11208.5 g/ha [4]: 70%
CNC(=O)Oc1cc(Oc2ccc(C(F)(F)F)cc2Cl)ccc1[N+](=O)[O-] [Example 33] | – | 79% | 53% | 65% | 32% | – | – | – | activity at 2241.7 g/ha [1, 9]: 100%; activity at 4483.4 g/ha [1, 9]: 98%; activity at 2241.7 g/ha [4, 10]: 74%; activity at 4483.4 g/ha [4, 10]: 99%
CS(=O)(=O)CCOc1cc(Oc2ccc(C(F)(F)F)cc2Cl)ccc1[N+](=O)[O-] [Example 42] | 98% | 83% | 62% | 63% | 38% | 80% | 88% | 60% | –
O=[N+]([O-])c1ccc(Oc2ccc(C(F)(F)F)cc2Cl)cc1OCC(O)CO (stereo not drawn) [Example 39, 2-chloro-α,α,α-trifluoro-p-tolyl-3-(2,3-dihydroxypropoxy)-4-nitrophenyl ether] | 98% | 77% | 65% | 61% | 64% | 99% | 100% | 80% | –
C#CCCOc1cc(Oc2ccc(C(F)(F)F)cc2Cl)ccc1[N+](=O)[O-] [Example 29] | 100% | 66% | 74% | 97% | 79% | 73% | 100% | 84% | –
N#Cc1cc(Oc2ccc(C(F)(F)F)cc2Cl)ccc1[N+](=O)[O-] [Example 47, 2-Chloro-α,α,α-trifluoro-p-tolyl-3-cyano-4-nitrophenyle ther] | 72% | 80% | 61% | 24% | 11% | 40% | 84% | – | –
CC#CCCOc1cc(Oc2ccc(C(F)(F)F)cc2Cl)ccc1[N+](=O)[O-] [Example 14] | 94% | 30% | 64% | 91% | 61% | 78% | 100% | 22% | –
CCOCCOc1cc(Oc2ccc(C(F)(F)F)cc2Cl)ccc1[N+](=O)[O-] [Example 16] | 96% | 67% | 86% | 82% | 77% | 94% | 94% | 75% | –
CCCN(CCC)c1cc(Oc2ccc(C(F)(F)F)cc2Cl)ccc1[N+](=O)[O-] [Example 41] | 95% | 84% | 60% | 56% | 71% | 96% | 94% | 62% | –
O=[N+]([O-])c1ccc(Oc2ccc(C(F)(F)F)cc2Cl)cc1OCCO [Example 15, 2-chloro-α,α,α-trifluoro-p-tolyl-3-(2-hydroxyethoxy)-4-nitrophenyl ether] | 99% | 68% | 99% | 76% | 79% | 100% | 94% | 90% | –
